Laboratory results reported in the NIST ThermoML archive (doi:10.1016/j.jct.2012.12.015).
Numbers after ± are expanded uncertainties.

What was measured:
[1] = xn = mol fraction of the nth substance listed; details: 101 kPa, Liquid, Pulse-echo method, x2 = 0.5
[2] = Crystal; visual observation

Row | speed of sound ([1]; 1065 K) [m/s] | speed of sound ([1]; 1071 K) [m/s] | speed of sound ([1]; 1075 K) [m/s] | Normal melting temperature [2] [°C] | Structure (SMILES)
1 | 1360 ± 8 | 1357 ± 8 | 1354 ± 8 |  | [Ag][I] [silver iodide] + [Cl-].[Na+]
2 |  |  |  | 801 ± 1 | [Cl-].[Na+] [sodium chloride]
3 |  |  |  | 559 ± 1 | [Ag][I] [silver iodide]
